Patent US20240350669A1, “INHIBITION OF KYNURENINE SYNTHESIS AND/OR SIGNALING TO TREAT LEUKEMIA AND MYELODYSPLASIA” (THE TRUSTEES OF COLUMBIA UNIVERSITY IN THE CITY OF NEW YORK, priority 2022, published 2024)

What was measured:
[1] = tested on: HTR1B; experiment: Saa3 mRNA in primary mouse calvaria osteoblasts from Htr1b+/+ or Htr1b-/- mice; assay type: cell-based; settings: 25 nM, 24 h; for Saa3 expression in mouse osteoblasts: Htr1b+/+ osteoblasts
Experimental: Primary calvaria-derived osteoblasts were prepared from calvaria of 2-3 day-old newborns as previously described (Rached M-T, et al. FoxO1 Is a Positive Regulator of Bone Formation by Favoring Protein Synthesis and Resistance to Oxidative Stress in Osteoblasts. Cell Metabolism. Elsevier Ltd; 2010; 11:147-60.). Briefly, mice calvaria were sequentially digested for 20, 40, and 90 min at 37° C. in alpha-MEM (Gibco) 10% FBS containing 0.1 mg/ml of collagenase P (Worthington) and 0.25% trypsin (Gibco). Cells of the first two digests were discarded, whereas cells released from the third digestion were plated and differentiated for 7-10 days as previously described.
(§1) RNA isolation, cDNA preparation and real-time PCR analyses were carried out following standard protocols. Total RNA from cortical bone (clean, flushed femurs, were centrifugated 20 seconds at 10.000 g's to remove any remaining BM) was extracted using TRIzol (Invitrogen) followed by RNA clean-up using PureLink RNA Mini Kit (Ambion, Invitrogen). mRNA was reversed transcribed using random hexamers RNA-to-cDNA kit (Takara). Specific forward and reverse primers were used in conjunction with PowerUp SYBR Green Master Mix (Applied Biosystems) for quantitative PCR. Expression levels were analyzed using the 2^−ΔΔCt method and were normalized for the expression of the housekeeping gene Hprt unless otherwise stated.

[2] = target: T1, mouse HTR1B (Mus musculus, UniProt P28334); experiment: [3H]-5-HT competition binding, membranes of HEK293T cells overexpressing murine HTR1B; settings: competition of 25 nM [3H]-5-HT; for Log IC50: log value
T1 construct: The full-length murine or human serotonin receptor 1b (Htr1b); Myc-DDK; host or cells: HEK293T (transient, Lipofectamine LTX); isolated membranes
T1 sequence (P28334 whole entry): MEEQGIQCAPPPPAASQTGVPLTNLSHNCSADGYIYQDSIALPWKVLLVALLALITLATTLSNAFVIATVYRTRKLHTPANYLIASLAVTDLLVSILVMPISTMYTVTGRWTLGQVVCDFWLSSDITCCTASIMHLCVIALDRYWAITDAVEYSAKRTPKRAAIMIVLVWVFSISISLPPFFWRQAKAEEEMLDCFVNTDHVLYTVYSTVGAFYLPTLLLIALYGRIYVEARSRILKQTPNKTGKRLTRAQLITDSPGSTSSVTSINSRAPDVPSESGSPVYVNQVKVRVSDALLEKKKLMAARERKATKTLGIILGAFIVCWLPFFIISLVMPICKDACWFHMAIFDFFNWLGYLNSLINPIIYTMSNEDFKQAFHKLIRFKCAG
Experimental: (§2) Radioactivity captured on the filters was counted using a SL300 scintillation counter (Hidex). […] Log EC50 were determined by Non-linear regression curve analysis.

[3] = tested on: patient-derived AML cells; experiment: Patient-derived AML xenograft in NSG mice, epacadostat chow and/or Ara-C; assay type: in vivo, mouse; settings: day 22 after initiating therapy; Ara-C 60 mg/kg/day x 5 days, epacadostat chow 1.6 g/kg 3 weeks
Experimental: (§3) Epacadostat (AdooQ Cat #A15554)-treatment: for the WT C57BL/6J mice, treatment started at the same time than MLL/AF9 cells were transplanted. For the patient-derived AML cells (PDX) transplanted into NSG mice, treatment started 8 weeks after transplant, at the same time than Ara-C and during 3 weeks. Mice were supplied with ad libitum epacadostat-supplemented diet (Research Diets Inc.) at 800 mg/kg (low-dose) or 1.6 g/kg (high-dose). For the PDX transplanted into NSGS mice, treatment started 3 weeks after transplant, by daily gavage at 300 mg/kg (InvivoChem Cat #: V0942, dissolved in 10% DMSO, 40% PEG 300 and 50% NaCl 0.9%) for 2 weeks.
For the combination therapy (Epacadostat+chemotherapy) performed at the University of Pennsylvania, patient-derived AML cells were transplanted as previously reported (48). Briefly 6 weeks old NSG males were sublethally treated with busulfan (30 mg/kg) 24 h before transplant and 5×10^6 patient-derived AML cells were injected i.v. Engraftment was assessed, and mice were randomized at 7.5 weeks by BM aspirate as previously described. Randomized mice were treated with vehicle, cytosine arabinoside (Ara-C, 60 mg/kg/day×5 days i.p.), epacadostat chow (1.6 g/kg ad libitum) or both Ara-C and epacadostat chow for 3 weeks.

[4] = target: T2, human HTR1B (Homo sapiens, UniProt P28222); experiment: [3H]-GR125743 competitive radioligand binding, HTR1B membranes from HEK293T stable transfectants; settings: [3H]-GR125743, human HTR1B
T2 sequence (P28222 whole entry): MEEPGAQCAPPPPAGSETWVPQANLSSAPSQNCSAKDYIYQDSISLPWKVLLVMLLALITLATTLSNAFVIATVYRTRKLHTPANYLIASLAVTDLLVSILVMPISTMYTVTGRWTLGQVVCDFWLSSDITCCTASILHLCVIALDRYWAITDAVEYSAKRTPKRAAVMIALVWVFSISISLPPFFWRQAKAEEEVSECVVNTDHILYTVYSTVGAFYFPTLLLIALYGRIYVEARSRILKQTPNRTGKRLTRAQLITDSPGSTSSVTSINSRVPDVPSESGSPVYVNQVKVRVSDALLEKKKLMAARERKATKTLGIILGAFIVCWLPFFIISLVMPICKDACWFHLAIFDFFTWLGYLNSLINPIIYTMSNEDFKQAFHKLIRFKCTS
Experimental: [^3H]-GR125743 (PerkinElmer) radioligand binding assays were performed in standard binding buffer (50 mM Tris, 10 mM MgCl2, 0.1 mM EDTA, 0.1% BSA, 0.01% ascorbic acid, pH 7.4). Competitive binding was assessed with various concentrations of test compounds (0.3 nM to 100 μM), [^3H]-GR125743 (1.38 nM), and HTR1B membranes (isolated from HEK293T stable transfectants) in a total volume of 150 μL. Assay plates were incubated in the dark for 1 h at RT and reactions were stopped by filtration onto 0.3% polyethyleneimine pre-soaked 96-well Filtermat A (PerkinElmer), followed with three quick washes with cold wash buffer (50 mM Tris, pH 7.4). Filters were dried and melted with scintillation cocktail (Meltilex, PerkinElmer). Radioactivity was counted using a Wallac TriLux Microbeta counter (PerkinElmer).

[5] = target: T3, 5-HT1B receptor (Homo sapiens, UniProt P28222); experiment: GloSensor Gi/o-mediated cAMP inhibition assay in HEK293T cells; assay type: cell-based
T3 construct: expressed in transfected cells; host or cells: HEK293T (transient co-transfection with GloSensor cAMP plasmid)
T3 sequence (P28222 whole entry): as above

[6] = tested on: leukemic blasts (hCD45+hCD33+); experiment: Kyn injection in low AML burden PDX mice; assay type: in vivo, mouse; settings: Kyn 20 mg/kg, 1 week
Experimental: 4-6 weeks old NSG (CDX model) or NSGS (PDX model) mice were pre-conditioned with sublethal (1.4 Gy) total-body irradiation. 24 h after, 1×10^6 OCI-AML3 or 2×10^5 human BM CD34^+ (healthy) or primary AML patient samples were injected i.v. Engraftment levels were monitored and mice were randomized after BM aspiration 3-4 weeks later and immunophenotyped by the presence of mCD45 (BioLegend Cat #103133, RRID: AB_10899570), hCD45 (BioLegend Cat #368512, RRID: AB_2566372), hCD33 (BioLegend Cat #303404, RRID: AB_314348), hCD34 (BioLegend Cat #343518, RRID: AB_1937203) cell populations. For the low-burden PDX model (kynurenine injections), mice were treated 1 week after transplant.
Quantification in serum from peripheral blood (mice) or BM plasma (patients) of Kyn and Trp was assessed by ELISA using independent kits (ImmunoSmol) as per manufacturer's instructions. The ratio between Kyn and Trp levels is shown. SAA3 in serum (murine SAA3 ELISA Kit Millipore) and SAA1 in patient BM plasma (Amyloid A1 DuoSet ELISA Kit (R&D) were assessed as per manufacturer's instructions.
Cell labelling was done by i.p. injection of mice with 50 mg/kg of freshly prepared 5-Ethynyl-2′-deoxyuridine-Edu-(Cayman Chemical Company Cat #20518). After 3-4 h, BM was harvested, and human cells were negatively selected by mouse cell depletion using mouse CD45 magnetic beads (Miltenyi). The human BM cells were then stained CD45 and CD33 to identify the leukemic blast. Cell cycle/proliferation analysis was performed using the Click-iT Plus EdU Flow Cytometry Assay Kit (Invitrogen, Cat #C10420) following manufacturers' instructions. Fixable viability dye (Biolegend) was used to discriminate the death population. Single color controls were used to set compensations and fluorescence minus one control were used to set gates. Analysis was performed with FlowJo software.

[7] = target: T2, human HTR1B; settings: competition of 25 nM [3H]-5-HT
Experimental: The full-length murine or human serotonin receptor 1b (Htr1b) (pCMV6-Entry vector, Myc-DDK-tagged, Origene, Cat #MR222524 and RC223874 respectively) were transiently transfected into HEK293T cells using Lipofectamine LTX (Invitrogen). Transfection efficiency was assessed 24 h post-transfection by flow cytometry using the anti-Flag antibody (Sigma-Aldrich Cat #F3165, RRID: AB_259529). […] Reactions were stopped by the addition of ice-cold PBS, filtered through 0.7 μm glass fiber filters (Data Support Company). Filters were dried and melted with scintillation cocktail. Radioactivity captured on the filters was counted using a SL300 scintillation counter (Hidex). […] Log EC50 were determined by Non-linear regression curve analysis.

[8] = tested on: MLL/AF9 AML cells; experiment: MLL/AF9 syngeneic leukemia model in non-irradiated WT mice; assay type: in vivo, mouse; settings: SB9 5 mg/kg i.p. daily versus vehicle
Experimental: PTH bone-anabolic treatment: mice were injected intraperitoneally (i.p.) with PTH (Bachem) at 80 μg/kg/day in PBS. Injections started 1 week before MLL/AF9 injection and continued along 2-3 more weeks until mice were harvest.
SB224289-SB9-(TOCRIS Cat #1221) treatment: mice were injected intraperitoneally (i.p.) daily with SB9 (5 mg/kg in 0.9% NaCl) 1 week after leukemia injection and for the duration of the experiment. Assuming a 20 g body weight (BW) and a 2 ml total blood volume per mouse—as well as an even distribution of the drug-systemic concentration of SB9 should be approximately 50 μg/ml. Based on the MW of SB9 (557.09), the final concentration—at equal distribution—in blood should be 8.97521e-05 M (≈90 μM).
as §3
All leukemia models were introduced by intravenous (i.v.) injection and transplanted into non-irradiated secondary recipient experimental animals. BALB/c mice were used for the WEHI-3B leukemia model (0.5×10^6/cells/mouse) and C57BL/6J mice for MLL/AF9-dsRed (0.2×10^6/cells/mouse). Leukemia progression was assessed by fluorescence (MLL/AF9 dsRed) using the IVIS-Spectrum Optical Imaging System (Caliper, Perkin Elmer). Mice were shaved to reduce light attenuation.

[9] = target: T4, murine HTR1B receptor (Mus musculus, UniProt P28334); experiment: [3H]-Kyn binding to Htr1b-overexpressing HEK293T membranes with increasing SB9
T4 construct: The full-length murine or human serotonin receptor 1b (Htr1b); Myc-DDK; host or cells: HEK293T (transient, Lipofectamine LTX); isolated membranes
T4 sequence (P28334 whole entry): as the sequence (P28334 whole entry) above
Experimental: as §2

[10] = tested on: serotonin-HTR1B signaling; experiment: Gene expression in bone of treated mice (targets of serotonin-HTR1B signaling); assay type: in vivo, mouse
Experimental: as §1

NCCc1c[nH]c2ccc(O)cc12 [5-HT, 5-hydroxytryptamine]
Saa3 expression in mouse osteoblasts [1]: no effect | IC50 [2]: 0.0811 µM | Log IC50 [2]: −7.091 M

Nc1ccn([C@@H]2O[C@H](CO)[C@@H](O)[C@@H]2O)c(=O)n1 [Ara-C, cytosine arabinoside]
leukemic burden in BM [3]: modest decrease in overall leukemic burden | leukemic burden in spleen [3]: more sustained in the spleen than in BM

Nc1ccccc1C(=O)CC(N)C(=O)O (centres unmarked) [Kyn, kynurenine]
Saa3 expression in Htr1b-/- primary osteoblasts [1]: failed to upregulate | Saa3 expression in mouse osteoblasts [1]: potently upregulated | Ki [4]: 17.3 µM | Log Ki ([4]; log value): −4.762 M | mode of action on Gi/o-mediated cAMP production through HTR1B [5]: partial agonist | EC50 ([5]; cAMP Gi agonist, human HTR1B): 0.772 µM | Log EC50 ([5]; log value, cAMP Gi agonist, human HTR1B): −6.113 M | AML burden in BM and SP [6]: increased | proliferative capacity of the leukemic blasts [6]: increases | serum SAA3 [6]: increases | IC50 [7]: 24.4 µM | Log IC50 ([7]; log value): −4.612 M | IC50 [2]: 54.1 µM | Log IC50 [2]: −4.267 M

Cc1nc(-c2ccc(-c3ccc(C(=O)N4CCc5cc6c(cc54)C4(CCN(C)CC4)CO6)cc3)c(C)c2)no1 [SB224289, 1′-methyl-5-[[2′-methyl-4“-(5-methyl-1,2,4-oxadiazol-3-yl)biphenyl-4-yl]carbonyl]-2,3,6,7-tetrahydro-spiro[furo[2,3-f]indole-3,4-”piperidine]]
survival [8]: significant increase in survival | effect on Kyn binding to the murine HTR1B receptor ([9]; at ~90 μM, concentration equal to the one administered in vivo): no effect | IC50 ([9]; competition of [3H]-Kyn (50 μM), mouse HTR1B): 7720 µM | expression of Col1a1 in bone ([10]; control osteoblast-specific gene): not affected | expression of Cyclins D1, D2 and E1 in bone ([10]; treated versus vehicle-treated mice): upregulated | IC50 [2]: 1.27 µM | Log IC50 [2]: −5.896 M
